The nature of this data set: Daily oral administration of DHEA to female users of hormonal oral contraceptives. The format is in vivo, human. Particulars: daily oral dosage of around 50 mg. The text has this: DHEA can be administered by different routes. Unlike various other known androgens, DHEA is orally active. […] Apart from the ability of DHEA to restore and normalize androgen levels, important significant clinical benefits have been observed on several aspects of sexual function (arousability, responsivity, genital sensation, lubrication), mood and menstrual distress symptoms.

For `C[C@]12CC[C@H](O)CC1=CC[C@@H]1[C@@H]2CC[C@]2(C)C(=O)CC[C@@H]12` [DHEA, 3-beta-hydroxyandrost-5-en-17-one], the estradiol levels entry is “without increasing estradiol levels”, the “excessively high testosterone levels or clinical symptoms of hyperandrogenicity” value is “without causing excessively high testosterone levels or clinical symptoms of hyperandrogenicity”, the “normalization of free testosterone” value is on record as “at least 50%” and the “normalization of total testosterone” value is recorded as “normalizes total testosterone completely”.

The record behind these values is US10179107B2, “Tablet containing dehydroepiandrosterone (DHEA)” (PANTARHEI BIOSCIENCE B.V., priority 2011, dated 2019).
